Measured values published in US20100113465A1, “7-AZASPIRO[3.5]NONANE-7-CARBOXAMIDE COMPOUNDS” (Pfizer Inc., priority 2008, published 2010).
Marks after values point to notes of the source that are not given here.

Experiments:
rat FAAH = molecular target: T1, rat FAAH (Rattus norvegicus, UniProt P97612); assay: FAAH assay, rat FAAH enzyme inhibition (kinact/Ki); assay type: biochemical; conditions: oleamide substrate 50 μM, 30° C., read-out: rFAAH kinact/Ki
T1 construct: made in house; host or cells: E. coli
T1 sequence (P97612 1-579): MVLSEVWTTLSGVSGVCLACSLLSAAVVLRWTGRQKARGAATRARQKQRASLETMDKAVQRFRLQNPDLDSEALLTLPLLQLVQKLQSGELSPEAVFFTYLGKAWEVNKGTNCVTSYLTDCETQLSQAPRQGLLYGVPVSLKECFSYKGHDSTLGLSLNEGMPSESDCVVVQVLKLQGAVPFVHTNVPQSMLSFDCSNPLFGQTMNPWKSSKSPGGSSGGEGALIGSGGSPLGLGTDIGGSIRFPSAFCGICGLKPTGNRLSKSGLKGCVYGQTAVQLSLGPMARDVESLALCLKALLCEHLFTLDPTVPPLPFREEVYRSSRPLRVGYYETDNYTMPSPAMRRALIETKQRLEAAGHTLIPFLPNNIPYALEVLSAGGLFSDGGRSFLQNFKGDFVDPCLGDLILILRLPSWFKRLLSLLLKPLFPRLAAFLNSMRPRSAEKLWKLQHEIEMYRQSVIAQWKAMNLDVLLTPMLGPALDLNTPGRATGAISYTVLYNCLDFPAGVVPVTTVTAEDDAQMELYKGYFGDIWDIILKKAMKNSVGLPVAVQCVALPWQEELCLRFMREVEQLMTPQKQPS
Summary of the method: (§1)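 Purified E. coli-expressed FAAH (1-4 nM) with oleamide at Km (50 μM), coupled GDH/NADH read at 340 nm over 90 min, 30° C, pH 7.4, 7.5% DMSO and EtOH. kobs from mono-exponential fits; kinact/Ki from kobs vs inhibitor slope, multiplied by two.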

Male Sprague-Dawley Rats [1] = assay: In vivo Complete Freund's Adjuvant (CFA) efficacy assay; design: species or system rat; key: (+) indicates the test compound was determined to be efficacious at 3 mpk, oral dosing; (−) indicates the test compound was determined to not be efficacious at 3 mpk, oral dosing; conditions: inhibition of allodynia vs vehicle, p<0.05
human FAAH = molecular target: T2, human FAAH (Homo sapiens, UniProt O00519); assay: FAAH assay, human FAAH enzyme inhibition (kinact/Ki); assay type: biochemical; conditions: oleamide substrate 50 μM, 30° C., read-out: hFAAH kinact/Ki
T2 construct: made in house; host or cells: E. coli
T2 sequence (O00519 1-579): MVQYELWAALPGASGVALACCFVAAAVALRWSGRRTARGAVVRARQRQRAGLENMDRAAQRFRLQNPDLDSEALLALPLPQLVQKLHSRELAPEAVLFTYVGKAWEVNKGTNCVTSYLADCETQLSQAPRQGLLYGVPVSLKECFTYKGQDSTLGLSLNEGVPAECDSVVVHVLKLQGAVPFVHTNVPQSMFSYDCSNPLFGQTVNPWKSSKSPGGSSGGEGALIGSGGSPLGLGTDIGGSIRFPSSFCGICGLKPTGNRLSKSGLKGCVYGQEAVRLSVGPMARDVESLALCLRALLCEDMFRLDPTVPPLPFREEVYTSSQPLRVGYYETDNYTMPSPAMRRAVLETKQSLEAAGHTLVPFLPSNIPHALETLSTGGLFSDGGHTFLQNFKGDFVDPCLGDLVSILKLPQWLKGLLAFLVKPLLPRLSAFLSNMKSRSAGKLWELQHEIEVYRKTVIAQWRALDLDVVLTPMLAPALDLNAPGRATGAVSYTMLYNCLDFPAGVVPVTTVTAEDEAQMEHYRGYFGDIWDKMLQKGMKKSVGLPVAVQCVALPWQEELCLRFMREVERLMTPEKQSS
Summary of the method: as §1

Male Sprague-Dawley Rats [2] = assay: In vivo Complete Freund's Adjuvant (CFA) efficacy assay; design: species or system rat; key: (+) indicates the test compound was determined to be efficacious at 3 mpk, oral dosing; (−) indicates the test compound was determined to not be efficacious at 3 mpk, oral dosing; conditions: 3 mpk, oral dosing; inhibition of allodynia (PWT) four hours postdose vs vehicle, p<0.05
Protocol: For additional information on the CFA efficacy assay, see Jayamanne et al., Brit. J. Pharmacol. 2006, 147, 281-288. Experiments were performed on adult Male Sprague-Dawley Rats (200 g-250 g). Inflammation was induced in the left hindpaw of the rat by an intra-plantar injection of 150 uL Complete Freund's Adjuvant (CFA) (SIGMA F5881). The CFA injection immediately induces local inflammation, paw swelling, and pain that persists for at least two weeks post-injection. Baseline paw withdrawal threshold (PWT) was measured to determine the percent inhibition of allodynia using a set of Von Frey Hairs on day 4 post injection as illustrated by the Dixon Up and Down Method (W. J. Dixon, Ann. Rev. Pharmacol. Toxicol. 1980, 20:441-462). […] Test compound was administered at a concentration of 3 mg/kg (mpk) orally with the dosing vehicle 5% N,N′-Dimethylacetamide (SIGMA D137510) and 95% (40% 2-hydroxypropyl-beta-cyclodextrin in water) (SIGMA H107). Following Dose administration PWT threshold was evaluated again at four hours postdose. The Sprague-Dawley rats used in this assay were purchased from Harlan, 8520 Allison Pointe Blvd., Indianapolis, Ind., 46250, U.S.A. Sprague-Dawley rats are an outbred breed of albino rats first produced by the Sprague Dawley farms in Madison, Wis., U.S.A.
Percent Inhibition of Allodynia was determined by the formula: […]
ΔPWT measurements were averaged for each treatment group and statistical comparisons between groups were made using ANOVA and Dunnett's two-tailed test. […]

SMILES	kinact/KI (rat FAAH)	CFA Efficacy (Male Sprague-Dawley Rats [1]; 10 mpk, intraperitoneal dosing)	kinact/KI (human FAAH)	CFA Efficacy (Male Sprague-Dawley Rats [1]; 25 mpk, intraperitoneal dosing)	CFA Efficacy (Male Sprague-Dawley Rats [1]; 1 mpk, oral dosing)	CFA Efficacy (Male Sprague-Dawley Rats [2])
O=C(Nc1cccnn1)N1CCC2(CC1)CC(c1cccc(Oc3ccc(C(F)(F)F)cn3)c1)C2 [Example 1, N-pyridazin-3-yl-2-(3-{[5-(trifluoromethyl)pyridin-2-yl]oxy}phenyl)-7-azaspiro[3.5]nonane-7-carboxamide]	647 M⁻¹ s⁻¹	(−)^c	1570 M⁻¹ s⁻¹	–	–	–
Cc1noc(NC(=O)N2CCC3(CC2)CC(c2cccc(Oc4ccc(C(F)(F)F)cn4)c2)C3)c1C [Example 2, N-(3,4-dimethylisoxazol-5-yl)-2-(3-{[5-(trifluoromethyl)pyridin-2-yl]oxy}phenyl)-7-azaspiro[3.5]nonane-7-carboxamide]	9460 M⁻¹ s⁻¹	–	1760 M⁻¹ s⁻¹	(+)^d	–	–
O=C(Nc1noc2ccccc12)N1CCC2(CC1)CC(c1cccc(Oc3ccc(C(F)(F)F)cn3)c1)C2 [Example 3, N-1,2-benzisoxazol-3-yl-2-(3-{[5-(trifluoromethyl)pyridin-2-yl]oxy}phenyl)-7-azaspiro[3.5]nonane-7-carboxamide]	4920 M⁻¹ s⁻¹	–	1030 M⁻¹ s⁻¹	(+)	(−)	–
Cn1nnnc1NC(=O)N1CCC2(CC1)CC(c1cccc(OC(F)(F)F)c1)C2 [Example 45, N-(1-methyl-1H-tetrazol-5-yl)-2-[3-(trifluoromethoxy)phenyl]-7-azaspiro[3.5]nonane-7-carboxamide]	4570 M⁻¹ s⁻¹	–	13200 M⁻¹ s⁻¹	–	–	(+)
Cn1nnnc1NC(=O)N1CCC2(CC1)CC(c1cccc(Cl)c1F)C2 [Example 46, 2-(3-chloro-2-fluorophenyl)-N-(1-methyl-1H-tetrazol-5-yl)-7-azaspiro[3.5]nonane-7-carboxamide]	3410 M⁻¹ s⁻¹	–	14100 M⁻¹ s⁻¹	–	–	(+)
Cn1nnnc1NC(=O)N1CCC2(CC1)CC(c1cccc(C(F)(F)F)c1F)C2 [Example 47, 2-[2-fluoro-3-(trifluoromethyl)phenyl]-N-(1-methyl-1H-tetrazol-5-yl)-7-azaspiro[3.5]nonane-7-carboxamide]	3330 M⁻¹ s⁻¹	–	15400 M⁻¹ s⁻¹	–	–	(+)
Cn1nnnc1NC(=O)N1CCC2(CC1)CC(c1ccc(F)c(Cl)c1)C2 [Example 48, 2-(3-chloro-4-fluorophenyl)-N-(1-methyl-1H-tetrazol-5-yl)-7-azaspiro[3.5]nonane-7-carboxamide]	5940 M⁻¹ s⁻¹	–	16300 M⁻¹ s⁻¹	–	–	(+)
Cn1nnnc1NC(=O)N1CCC2(CC1)CC(c1noc(-c3ccc(C(F)(F)F)cc3)n1)C2 [Example 49, N-(1-methyl-1H-tetrazol-5-yl)-2-{5-[4-(trifluoromethyl)phenyl]-1,2,4-oxadiazol-3-yl}-7-azaspiro[3.5]nonane-7-carboxamide]	552 M⁻¹ s⁻¹	–	5240 M⁻¹ s⁻¹	–	–	(+)
Cn1nnnc1NC(=O)N1CCC2(CC1)CC(c1noc(-c3ccc(OC(F)(F)F)cc3)n1)C2 [Example 50, N-(1-methyl-1H-tetrazol-5-yl)-2-{5-[4-(trifluoromethoxy)phenyl]-1,2,4-oxadiazol-3-yl}-7-azaspiro[3.5]nonane-7-carboxamide]	3530 M⁻¹ s⁻¹	–	16700 M⁻¹ s⁻¹	–	–	(+)
Cn1nnnc1NC(=O)N1CCC2(CC1)CC(F)(c1cccc(OC(F)(F)F)c1)C2 [Example 53, 2-fluoro-N-(1-methyl-1H-tetrazol-5-yl)-2-[3-(trifluoromethoxy)phenyl]-7-azaspiro[3.5]nonane-7-carboxamide]	1920 M⁻¹ s⁻¹	–	13900 M⁻¹ s⁻¹	–	–	(+)
Cn1nnnc1NC(=O)N1CCC2(CC1)CC(c1cccc(Oc3ccc(C(F)(F)F)cn3)c1)C2 [Example 54, N-(1-methyl-1H-tetrazol-5-yl)-2-(3-{[5-(trifluoromethyl)pyridin-2-yl]oxy}phenyl)-7-azaspiro[3.5]nonane-7-carboxamide]	26800 M⁻¹ s⁻¹	–	21700 M⁻¹ s⁻¹	–	–	(+)
